Data from US20220023196A1, “COSMETIC COMPOSITION FOR SKIN IMPROVEMENT COMPRISING GREEN BARLEY EXTRACT” (AMI COSMETIC CO., LTD., priority 2020, published 2022).

Columns and labels:
[1] = system: filaggrin (FLG); experiment: FLG production in HaCaT cells (Filaggrin-ELISA kit); format: cell-based; conditions: for Increase in FLG production (%): 24 hours, Concentration 50 (unit not given), Control = 100
Protocol: (§1) HaCaT cells were dispensed into a 24-well plate at 1.0×10^5 cells/mL and cultured under the conditions of 37° C. and 5% CO2 for 18 hours. After the medium was replaced with serum-free DMEM, the cells were treated with a sample and then cultured for 24 hours. Subsequently, the culture solution was removed, and each group was washed with PBS and then treated with PBS containing no drugs that could interfere with the quantification of proteins. The cells were lysed through repeated switching between low-temperature incubation and room-temperature incubation, and the proteins were collected. The quantification was performed, using a Filaggrin-ELISA kit (Elabscience Biotechnology Co., Ltd.), according to the method specified by the manufacturer.
In order to evaluate the skin barrier strengthening effect of Examples 1 to 6 and Comparative Examples 1 to 5, an experiment was conducted to evaluate the effect of increasing the production of FLG.
The production amount of FLG was measured in the same manner as in Experimental Example 3-1.

[2] = system: hyaluronic acid (HA); experiment: HA production in HaCaT cells (hyaluronic acid ELISA kit); format: cell-based; conditions: 24 hours; for Increase in HA production (%): Concentration 50 (unit not given), Control = 100
Protocol: HaCaT cells were dispensed into a 24-well plate at 1.0×10^5 cells/mL and cultured under the conditions of 37° C. and 5% CO2 for 18 hours. After the medium was replaced with serum-free DMEM, the cells were treated with a sample and then cultured for 24 hours. Subsequently, the culture medium was collected and centrifuged at 15,000 rpm for five minutes, and the supernatant was collected and stored frozen (−20° C.) until quantified. Enzyme-linked immunosorbent assay (ELISA) was conducted, using a hyaluronic acid ELISA kit (Elabscience Biotechnology Co., Ltd.), according to the method specified by the manufacturer.
In order to evaluate the moisturizing effect of Examples 1 to 6 and Comparative Examples 1 to 5, an experiment was conducted to evaluate an HA production increasing effect.
The HA production amount was measured in the same manner as in Experimental Example 3-2.

[3] = system: aquaporin 3 (AQP3); experiment: AQP3 production in HaCaT cells (AQP3-ELISA kit); format: cell-based; conditions: 24 hours; for Increase in AQP3 production (%): Concentration 50 (unit not given), Control = 100
Protocol: as §1, with “In addition, HaCaT cells” for “HaCaT cells”, “cells/mL and then cultured under” for “cells/mL and cultured under”, “performed, using an AQP3-ELISA kit (Elabscience” for “performed, using a Filaggrin-ELISA kit (Elabscience”
In order to evaluate the moisturizing effect of Examples 1 to 6 and Comparative Examples 1 to 5, an experiment was conducted to evaluate an AQP3 production increasing effect.
The AQP3 production amount was measured in the same manner as in Experimental Example 3-2.

[4] = system: sensitive skin; experiment: Human patch test for skin irritation on sensitive skin; format: in vivo
Protocol: A test was conducted to evaluate the suitability and safety of use of soothing gel, lotion, cream, body wash, and foam cleanser formulations including a composition including the ceramide and green barley extract of the present invention. The inventors requested the OATC Skin Clinical Trials Center to perform a human application test, and the test was conducted in accordance with the cosmetics guidelines of Korea's Ministry of Food and Drug Safety, Declaration of Helsinki, and OATC Skin Clinical Trials Center's SOP.
In order to classify the test subjects according to skin type, the test subjects were screened by a stinging test to identify those with sensitive skin, wherein steam was applied to their faces for 10 minutes using a steamer to make their skin sensitive, and subsequently, each of 10% lactic acid and distilled water (D.W.) was applied to the nasolabial folds on either side of the nose.
After the test subject's test site was wiped off with 70% ethanol and dried, 25 μl of a test product was applied dropwise to IQ Ultra, which was then attached and fixed to the test site. At 30 minutes, 24 hours, and 48 hours after removing the patch, the level of irritation was evaluated by two experts using, as a standard, the evaluation method devised by Frosch & Kligman and employing the reading standards of the International Contact Dermatitis Research Group (ICDRG).
In addition, safety zones were established, and an experiment was conducted while using the safety zones as criteria for evaluating the likelihood of causing irritation.

Compound	Increase in FLG production (%) [1] [%]	Increase in HA production (%) [2] [%]	Increase in AQP3 production (%) [3] [%]	also measured
O=c1cc(-c2ccc(O)cc2)oc2cc(O[C@@H]3O[C@H](CO)[C@@H](O)[C@H](O)[C@H]3O)c([C@@H]3O[C@H](CO)[C@@H](O)[C@H](O)[C@H]3O)c(O)c12 [saponarin, 5-hydroxy-2-(4-hydroxyphenyl)-6-[3,4,5-trihydroxy-6-(hydroxymethyl)oxan-2-yl]-7-[3,4,5-trihydroxy-6-(hydroxymethyl)oxan-2-yl]oxychromen-4-one]				Increase of the expression level of FLG compared to the control ([1]; 24 hours (FIG. 6)): 29.87%; Production of HA (result in words) [2]: significantly increased the production of skin moisturizing factors; Production of AQP3 (result in words) [3]: significantly increased the production of skin moisturizing factors
CCCCCCCCCCCCCCCCCCCCCCC(=O)NC(CO)C(O)C(O)CCCCCCCCCCCCCC (stereo not drawn) [Comparative Example 3, Ceramide NP]	115.5	93.2	114.6	
CCCCCCCCCCCCCCCCCCCCCC(O)C(=O)NC(CO)C(O)C(O)CCCCCCCCCCCCCC (stereo not drawn) [Comparative Example 5, Ceramide AP]	129.9	95.2	113.7	
CCCCCCCCCCCCC/C=C/C(O)C(CO)NC(=O)CCCCCCCCCCCCCCCCCCCCCC (stereo not drawn) [Comparative Example 2, Ceramide NS]	116.7	94.5	118.5	
CCCCCCCCCCCCOS(=O)(=O)[O-].[Na+] [1% SLS]				Sum of skin irritation reaction intensity 1st ([4]; 1st reading, patch test): 4.00; Sum of skin irritation reaction intensity 2nd ([4]; 2nd reading, patch test): 4.00; Sum of skin irritation reaction intensity 3rd ([4]; 3rd reading, patch test): 3.06; Irritation of level ++ or more in >10% of test subjects ([4]; conformity criterion): Conforming; Safety zone ([4]; conformity to safety zone of Table 20): Conforming; Skin irritation index ([4]; patch test): 3.06
CCCCCCCCCCCCC/C=C/C(O)C(CO)NC(=O)C(O)CCCCCCCCCCCCCCCCCCCCC (stereo not drawn) [Comparative Example 4, Ceramide AS]	122.4	94.6	114.5	
Ceramide EOP [Comparative Example 1]	119.5	93.0	117.5	
